Laboratory results as given in US11207312B2, “Metallo-beta-lactamase inhibitors and methods of use thereof” (priority 2017, dated 2021).

What was measured:
NDM-1 = NDM-1 (Klebsiella pneumoniae, UniProt C7C422); test: biochemical; type: biochemical; settings: CCF2-FA fluorescence assay, 2 hours at 25° C.
Experimental: (§1) The Class B enzyme activities were measured in the presence of the test inhibitor in a fluorescence assay against a commercially available substrate consisting of a cephalosporin core linking 7-hydroxycoumarin to fluorescein (CCF2-FA). The enzyme (NDM-1, IMP-1 or VIM-1) and the substrate were diluted in 100 mM KH2PO4 buffer (pH 7) containing 0.005% Tween-20 and 10 μM ZnSO4. In the assay, the final concentration of enzyme was 1 pM, 2 pM and 30 pM for NDM-1, IMP-1 and VIM-1, respectively, and the final concentration of CCF2-FA was 1.25 μM. The test inhibitor was dissolved in dimethylsulfoxide and diluted 1:50 in the assay, resulting in a final concentration range of 20 μM to 0.00063 μM. In a 384-well microplate, the test inhibitor was incubated with the metallo-β-lactamase enzyme and the substrate for 2 hours at 25° C. Fluorescence at 460 nm following excitation at 405 nm was measured. The IC50 value was determined from semi-logarithmic plots of enzyme inhibition versus inhibitor concentration, with a curve generated using a 4-parameter fit.

IMP-1 = IMP-1 (Serratia marcescens, UniProt P52699); test: biochemical; settings: CCF2-FA fluorescence assay, 2 hours at 25° C.; read-out: IMP1 IC50
Chain of IMP-1 (P52699 whole entry, looked up, species assumed): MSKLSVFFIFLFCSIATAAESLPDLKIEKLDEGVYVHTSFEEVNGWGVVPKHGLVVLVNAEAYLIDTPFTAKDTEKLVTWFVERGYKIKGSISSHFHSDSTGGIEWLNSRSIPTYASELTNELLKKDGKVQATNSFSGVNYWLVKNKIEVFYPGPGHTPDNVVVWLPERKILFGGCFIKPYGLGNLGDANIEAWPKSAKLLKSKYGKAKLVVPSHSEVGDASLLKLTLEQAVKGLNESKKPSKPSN
Experimental: as §1

VIM-1 = VIM-1 (Pseudomonas aeruginosa (strain ATCC 15692 / DSM 22644 / CIP 104116 / JCM 14847 / LMG 12228 / 1C / PRS 101 / PAO1), UniProt A0A0F7KYQ8); test: biochemical; settings: CCF2-FA fluorescence assay, 2 hours at 25° C.; read-out: VIM1 IC50
Experimental: as §1

VIM-2 = VIM-2 (Escherichia coli, UniProt Q5U7L7); test: biochemical; settings: CCF2-FA fluorescence assay; read-out: VIM2 IC50
[1] = test system: Escherichia coli expressing NDM-1 (CLB30016); type: cell-based; settings: with imipenem 1 μg/ml; 95% inhibition of bacterial growth
Experimental: (§2) The bacterial strains tested included the clinical strains Escherichia coil expressing NDM-1 (CLB30005, CLB30016), Serratia marcescens expressing IMP-1 (CL5741), and Klebsiella pneumoniae expressing VIM-1 (H-LMA599644). Inhibitor activity was measured in the presence and absence of imipenem in a 384-well microplate.
(§3) The clinical strains CLB30016, CL5741 and IHMA599644 were grown on trypticase soy agar containing 5% sheep's blood. The bacteria on agar plates were incubated at 35° C. with humidity overnight. The following day, individual colonies from each clinical strain were picked and resuspended in 5 ml saline to attain an OD600 of […], for CLB30016, C15741 and IHMA599644, respectively. These were further diluted 1:100 into 1.1× CAMHB and used to inoculate the test wells as described below.
(§4) Imipenem in 10 mM 3-(N-morpholino)propanesulfonic acid (MOPS, pH 7) was stored in single use aliquots at −80° C. […] On the day of the assay, 4 μl of antibiotic was added to 45 μl of bacteria followed by 1 μl of test compound and mixed by pipetting and with an orbital shaker. The concentration of antibiotic used in the assay was 1 μg/ml. Microplates were covered and incubated at 35° C. for 22 hours to 24 hours. At the end of the incubation, absorbance was determined using a spectrophotometer. The synergistic concentration of MBLI was determined by identifying the lowest concentration of test compound in the presence of a given concentration of antibiotic that was required to inhibit 95% of the growth of the bacteria. The results for Examples 1-209 are reported in Table 1, expressed as the concentration of compound that potentiated the action of antibiotic (imipenem) affecting 95% inhibition of bacterial growth (MITC95).

[2] = test system: Klebsiella pneumoniae expressing VIM-1 (IHMA599644); type: cell-based; settings: with imipenem 1 μg/ml; 95% inhibition of bacterial growth
Experimental: as §2, §3, §4

[3] = test system: Serratia marcescens expressing IMP-1 (CL5741); type: cell-based; settings: with imipenem 1 μg/ml; 95% inhibition of bacterial growth
Experimental: as §2, §3, §4

[4] = test system: P. aeruginosa MB9798 (efflux+, IMP-1 plasmid); settings: for MB9798 MITC95 P. aeruginosa uM Efflux WT: efflux + (MB9798) strain, imipenem at 2 μg/mL, in the presence of a class A, C, D serine β-lactamase inhibitor closely related to relebactam; for Efflux ratio: fold difference between efflux+ (MB9798) and efflux− (MB9799) strains
Text: (§5) The strain background is Pseudomonas aeruginosa PAO1. A wild-type (M135919) and an isogenic strain in which multiple efflux pumps have been disrupted genetically were used. The MBL IMP-1, obtained from a clinical isolate was introduced into the strain pair by the following process:
(§6) The plasmid DNA was transformed into parental MB5919 (oprD+, efflux+, inducible AmpC) and MB5890 (oprD+, efflux−, inducible AmpC) isogenic strains by electroporation.
(§7) The strain set was then used as a pair to determine the effect of metallo-β-lactamase inhibitors of Formula I on the MIC of imipenem and/or ceftazidime. A fixed concentration of antibiotic is included in standard microbroth MIC tests, usually at the CLSI breakpoint concentration, A fixed amount of a class A/C beta-lactamase inhibitor is also included to inhibit the resident Pseudomonas AmpC enzyme. A serial titration of the metallo-β-lactamase inhibitor was included and the concentration of metallo-β-lactamase inhibitor which restores susceptibility of the strain to the included antibiotic was recorded. That concentration of metallo-β-lactamase inhibitor was then compared between the two strains to determine the fold difference between the efflux+(MB9798) and efflux−(MI39799) strains, which indicates the extent to which the MBLi is subject to efflux.

[5] = test system: P. aeruginosa MB9799 (efflux-, IMP-1 plasmid); type: cell-based, Pseudomonas aeruginosa; settings: efflux − (MB9799) strain; imipenem at 2 μg/mL; in the presence of a class A, C, D serine β-lactamase inhibitor closely related to relebactam
Text: as §5, §6, §7

Chain of NDM-1 (C7C422 whole entry, looked up, species assumed): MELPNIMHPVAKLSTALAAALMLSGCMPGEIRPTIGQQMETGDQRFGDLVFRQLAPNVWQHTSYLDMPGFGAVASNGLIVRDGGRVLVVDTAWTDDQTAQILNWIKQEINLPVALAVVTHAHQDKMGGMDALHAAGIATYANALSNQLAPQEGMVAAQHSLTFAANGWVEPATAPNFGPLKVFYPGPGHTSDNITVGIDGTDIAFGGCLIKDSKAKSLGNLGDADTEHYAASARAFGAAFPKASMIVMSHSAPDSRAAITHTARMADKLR

| Structure (SMILES) | IC50 (NDM-1) [nM] | IC50 (IMP-1) [nM] | IC50 (VIM-1) [nM] | IC50 (VIM-2) [nM] | CLB30016 E. coli MITC95 NDM [1] [µM] | IHMA599644 K. pneumoniae MITC95 VIM [2] [µM] | CL5741 S. marcescens MITC95 IMP [3] [µM] | MB9798 MITC95 P. aeruginosa uM Efflux WT [4] [µM] | Efflux ratio [4] | MB9799 MITC95 P. aeruginosa uM Efflux Mutant [5] [µM] |
| --- | --- | --- | --- | --- | --- | --- | --- | --- | --- | --- |
| NCCC1CCN(c2ccc(S(=O)(=O)NC[C@H](O)CN)c(S(N)(=O)=O)c2-c2nn[nH]n2)CC1 [Example 24, (R)-N^1-(3-amino-2-hydroxypropyl)-4-(4-(2-aminoethyl)piperidin-1-yl)-3-(2H-tetrazol-5-yl)benzene-1,2-disulfonamide] | 5.09 | 5.79 | 0.45 | 5.6 | 1.56 | 6.25 | 3.13 | 1.56 | 1.00 | 1.56 |
| NC/C=C1\CCCN(c2ccc(S(=O)(=O)NC[C@H](O)CN)c(S(N)(=O)=O)c2-c2nn[nH]n2)C1 (single isomer, unassigned; isomer b) [Example 206] | 9.21 | 15.1 | 0.23 | 1.52 | 0.78 | 1.56 | 1.56 | 6.25 | 4.00 | 1.56 |
| NS(=O)(=O)c1c(S(=O)(=O)C2CNC2)ccc(N2CCC[C@H](O)C2)c1-c1nnn[nH]1 [Example 60, 6-(azetidin-3-ylsulfonyl)-3-[(3S)-3-hydroxypiperidin-1-yl]-2-(1H-tetrazol-5-yl)benzenesulfonamide] | 4.23 | 6.05 | 1.44 | 2.67 | 3.13 | 6.25 | 3.13 | 12.50 | 4.00 | 3.13 |
| NC[C@@H](O)CNS(=O)(=O)c1ccc(N2CCC[C@@H](CN)C2)c(-c2nnn[nH]2)c1S(N)(=O)=O [Example 38, N1-((R)-3-amino-2-hydroxypropyl)-4-((S)-3-(aminomethyl)piperidin-1-yl)-3-(1H-tetrazol-5-yl)benzene-1,2-disulfonamide] | 6.3 | 20.6 | 0.67 | 2.11 | 0.20 | 0.78 | 0.78 | 3.13 | 4.00 | 0.78 |
| CC(=O)N[C@H]1CCN(c2ccc(S(=O)(=O)N[C@@H]3CCNC3)c(S(N)(=O)=O)c2-c2nnn[nH]2)C1 [Example 83, N-[(3S)-1-{4-[(3R)-pyrrolidin-3-ylsulfamoyl]-3-sulfamoyl-2-(1H-tetrazol-5-yl)phenyl}pyrrolidin-3-yl]acetamide] | 4.98 | 15.9 | 2.11 | 2.82 | 6.25 | 12.50 | 3.13 | 12.50 | 4.00 | 3.13 |
| NCC1CCN(c2ccc(S(=O)(=O)C[C@H](O)CN)c(S(N)(=O)=O)c2-c2nn[nH]n2)CC1 [Example 128, (R)-6-((3-amino-2-hydroxypropyl)sulfonyl)-3-(4-(aminomethyl)piperidin-1-yl)-2-(2H-tetrazol-5-yl)benzenesulfonamide] | 8.71 | 3.65 | 0.94 | 13.3 | 0.39 | 0.78 | 0.78 | 0.78 | 2.00 | 0.39 |
| NCCC(=O)N1CCN(c2ccc(S(=O)(=O)NC[C@H](O)CN)c(S(N)(=O)=O)c2-c2nn[nH]n2)CC1 [Example 145, (R)—N1-(3-amino-2-hydroxypropyl)-4-(4-(3-aminopropanoyl)piperazin-1-yl)-3-(2H-tetrazol-5-yl)benzene-1,2-disulfonamide] | 1.68 | 4.7 | 0.46 | 8.32 | 0.39 | 1.56 | 0.78 | 0.78 | 1.00 | 0.78 |
| NCCNS(=O)(=O)C1CCN(c2ccc(S(=O)(=O)NC[C@H](O)CN)c(S(N)(=O)=O)c2-c2nn[nH]n2)CC1 [Example 190, (R)—N1-(3-amino-2-hydroxypropyl)-4-(4-(N-(2-aminoethyl)sulfamoyl)piperidin-1-yl)-3-(2H-tetrazol-5-yl)benzene-1,2-disulfonamide] | 0.67 | 0.61 | 0.09 | 0.85 | 3.13 | 1.56 | 0.78 | 0.78 | 1.00 | 0.78 |
| C[C@@H](CN)NS(=O)(=O)c1ccc(N2CCC(O)(CN)CC2)c(-c2nn[nH]n2)c1S(N)(=O)=O [Example 18, (S)-4-(4-(aminomethyl)-4-hydroxypiperidin-1-yl)-N1-(1-aminopropan-2-yl)-3-(2H-tetrazol-5-yl)benzene-1,2-disulfonamide] | 0.43 | 1.48 | 0.65 | 4.8 | 0.78 | 1.56 | 0.78 | 0.78 | 1.00 | 0.78 |
